Results: PubChem BioAssay AID1259407 (Chemical Carcinogenesis Research Information System (CCRIS), 2018)
Activity calls are given as the source filed them. How the calls were made is not given here.

System: CCRIS mutagenicity, Ames/micronucleus/aberration tests
Test: CCRIS mutagenicity studies
[1] = Test System: AMES SALMONELLA TYPHIMURIUM, Strain/Indicator: TA98, Metabolic Activation: NONE, Method: STANDARD PLATE
[2] = Test System: AMES SALMONELLA TYPHIMURIUM, Strain/Indicator: TA98, Metabolic Activation: RAT, LIVER, S-9, AROCLOR 1254, Method: STANDARD PLATE
[3] = Test System: AMES SALMONELLA TYPHIMURIUM, Strain/Indicator: TA100, Metabolic Activation: NONE, Method: STANDARD PLATE
[4] = Test System: AMES SALMONELLA TYPHIMURIUM, Strain/Indicator: TA100, Metabolic Activation: RAT, LIVER, S-9, AROCLOR 1254, Method: STANDARD PLATE
[5] = Test System: AMES SALMONELLA TYPHIMURIUM, Strain/Indicator: TA1535, Metabolic Activation: NONE, Method: STANDARD PLATE
[6] = Test System: AMES SALMONELLA TYPHIMURIUM, Strain/Indicator: TA1535, Metabolic Activation: RAT, LIVER, S-9, AROCLOR 1254, Method: STANDARD PLATE
[7] = Test System: AMES SALMONELLA TYPHIMURIUM, Strain/Indicator: TA1537, Metabolic Activation: NONE, Method: STANDARD PLATE
[8] = Test System: AMES SALMONELLA TYPHIMURIUM, Strain/Indicator: TA1537, Metabolic Activation: RAT, LIVER, S-9, AROCLOR 1254, Method: STANDARD PLATE

OC(O)C(Cl)(Cl)Cl
mutagenic call (End Point: IN VITRO MICRONUCLEUS, Test System: HAMSTER V79 CELLS, Metabolic Activation: NONE): active; positive | mutagenic call (End Point: IN VIVO MICRONUCLEUS, Test System: BLOOD LYMPHOCYTES, Species: HUMAN, Strain/Sex: INFANTS/MALE, FEMALE, Route: ORAL): active; positive | mutagenic call (Test System: AMES SALMONELLA TYPHIMURIUM, Strain/Indicator: TA98, Metabolic Activation: HAMSTER LIVER S-9 (10%), AROCLOR 1254, Method: PREINCUBATION): inactive; negative | mutagenic call (Test System: AMES SALMONELLA TYPHIMURIUM, Strain/Indicator: TA98, Metabolic Activation: NONE, Method: PREINCUBATION): inactive; negative | mutagenic call [1]: inactive; negative | mutagenic call (Test System: AMES SALMONELLA TYPHIMURIUM, Strain/Indicator: TA98, Metabolic Activation: RAT LIVER S-9 (10%), AROCLOR 1254, Method: PREINCUBATION): inactive; negative | mutagenic call [2]: inactive; negative | mutagenic call (Test System: AMES SALMONELLA TYPHIMURIUM, Strain/Indicator: TA98, Metabolic Activation: RAT, LIVER, S-9, PHENOBARBITAL AND 5,6-BENZOFLAVONE, Method: PREINCUBATION): inactive; negative | mutagenic call (Test System: AMES SALMONELLA TYPHIMURIUM, Strain/Indicator: TA100, Metabolic Activation: HAMSTER LIVER S-9 (10%), AROCLOR 1254, Method: PREINCUBATION): active; positive | mutagenic call (Test System: AMES SALMONELLA TYPHIMURIUM, Strain/Indicator: TA100, Metabolic Activation: NONE, Method: FLUCTUATION TEST): inactive; negative | mutagenic call [3]: inactive; negative | mutagenic call (Test System: AMES SALMONELLA TYPHIMURIUM, Strain/Indicator: TA100, Metabolic Activation: RAT LIVER S-9 (10%), AROCLOR 1254, Method: PREINCUBATION): active; positive | mutagenic call (Test System: AMES SALMONELLA TYPHIMURIUM, Strain/Indicator: TA100, Metabolic Activation: RAT, LIVER, S-9, AROCLOR 1254, Method: FLUCTUATION TEST): active; positive | mutagenic call [4]: inactive; negative | mutagenic call (Test System: AMES SALMONELLA TYPHIMURIUM, Strain/Indicator: TA100, Metabolic Activation: RAT, LIVER, S-9, PHENOBARBITAL AND 5,6-BENZOFLAVONE, Method: PREINCUBATION): inactive; negative | mutagenic call (Test System: AMES SALMONELLA TYPHIMURIUM, Strain/Indicator: TA1535, Metabolic Activation: HAMSTER LIVER S-9 (10%), AROCLOR 1254, Method: PREINCUBATION): inactive; negative | mutagenic call (Test System: AMES SALMONELLA TYPHIMURIUM, Strain/Indicator: TA1535, Metabolic Activation: NONE, Method: PREINCUBATION): inactive; negative | mutagenic call [5]: inactive; negative | mutagenic call (Test System: AMES SALMONELLA TYPHIMURIUM, Strain/Indicator: TA1535, Metabolic Activation: RAT LIVER S-9 (10%), AROCLOR 1254, Method: PREINCUBATION): inactive; negative | mutagenic call [6]: inactive; negative | mutagenic call (Test System: AMES SALMONELLA TYPHIMURIUM, Strain/Indicator: TA1537, Metabolic Activation: HAMSTER LIVER S-9 (10%), AROCLOR 1254, Method: PREINCUBATION): inactive; negative | mutagenic call (Test System: AMES SALMONELLA TYPHIMURIUM, Strain/Indicator: TA1537, Metabolic Activation: NONE, Method: PREINCUBATION): inactive; negative | mutagenic call [7]: inactive; negative | mutagenic call (Test System: AMES SALMONELLA TYPHIMURIUM, Strain/Indicator: TA1537, Metabolic Activation: RAT LIVER S-9 (10%), AROCLOR 1254, Method: PREINCUBATION): inactive; negative | mutagenic call [8]: inactive; negative | mutagenic call (Test System: AMES SALMONELLA TYPHIMURIUM, Strain/Indicator: TA1538, Metabolic Activation: NONE, Method: STANDARD PLATE): inactive; negative | mutagenic call (Test System: AMES SALMONELLA TYPHIMURIUM, Strain/Indicator: TA1538, Metabolic Activation: RAT, LIVER, S-9, AROCLOR 1254, Method: STANDARD PLATE): inactive; negative | mutagenic call (Test System: MOUSE LYMPHOMA, Strain/Indicator: L5178Y (TK+/TK- -3.7.2C), Metabolic Activation: NONE): active; positive

C1=Cc2cc3cc4ccccc4cc3c3cccc1c23
mutagenic call (Test System: CHINESE HAMSTER OVARY, Strain/Indicator: V-79/6-THIOGUANINE, Metabolic Activation: RAT, LIVER, S-9, AROCLOR 1254, Method: FLASK ASSAY): active; positive | mutagenic call (Test System: CHINESE HAMSTER OVARY, Strain/Indicator: V-79/6-THIOGUANINE, Metabolic Activation: SHE CELL MEDIATED, Method: FLASK ASSAY): inactive; negative | mutagenic call (Test System: CHINESE HAMSTER V-79, Strain/Indicator: V-79/6-THIOGUANINE, Metabolic Activation: RAT, LIVER, S-9, AROCLOR 1254, Method: SUSPENSION/PLATE): active; positive

CC(C)=CC1C(C(=O)OCc2coc(Cc3ccccc3)c2)C1(C)C (stereo unspecified)
mutagenic call (Test System: AMES SALMONELLA TYPHIMURIUM, Strain/Indicator: TA97, Metabolic Activation: NONE, Method: STANDARD PLATE): inactive; negative | mutagenic call (Test System: AMES SALMONELLA TYPHIMURIUM, Strain/Indicator: TA97, Metabolic Activation: RAT, LIVER, S-9, PHENOBARBITONE, Method: STANDARD PLATE): inactive; negative | mutagenic call (Test System: AMES SALMONELLA TYPHIMURIUM, Strain/Indicator: TA98): active; positive | mutagenic call (Test System: AMES SALMONELLA TYPHIMURIUM, Strain/Indicator: TA98, Metabolic Activation: NONE): inactive; negative | mutagenic call [1]: inactive; negative | mutagenic call [2]: inactive; negative | mutagenic call (Test System: AMES SALMONELLA TYPHIMURIUM, Strain/Indicator: TA98, Metabolic Activation: RAT, LIVER, S-9, PHENOBARBITONE, Method: STANDARD PLATE): inactive; negative | mutagenic call (Test System: AMES SALMONELLA TYPHIMURIUM, Strain/Indicator: TA100): active; positive | mutagenic call (Test System: AMES SALMONELLA TYPHIMURIUM, Strain/Indicator: TA100, Metabolic Activation: NONE): inactive; negative | mutagenic call [3]: inactive; negative | mutagenic call [4]: inactive; negative | mutagenic call (Test System: AMES SALMONELLA TYPHIMURIUM, Strain/Indicator: TA100, Metabolic Activation: RAT, LIVER, S-9, PHENOBARBITONE, Method: STANDARD PLATE): inactive; negative | mutagenic call (Test System: AMES SALMONELLA TYPHIMURIUM, Strain/Indicator: TA104, Metabolic Activation: NONE, Method: STANDARD PLATE): inactive; negative | mutagenic call (Test System: AMES SALMONELLA TYPHIMURIUM, Strain/Indicator: TA104, Metabolic Activation: RAT, LIVER, S-9, PHENOBARBITONE, Method: STANDARD PLATE): inactive; negative | mutagenic call [5]: inactive; negative | mutagenic call [6]: inactive; negative | mutagenic call [7]: inactive; negative | mutagenic call [8]: inactive; negative | mutagenic call (Test System: CHINESE HAMSTER V-79, Strain/Indicator: V-79/6-THIOGUANINE, Metabolic Activation: NONE, Method: STANDARD PLATE): inactive; negative | mutagenic call (Test System: CHINESE HAMSTER V-79, Strain/Indicator: V-79/6-THIOGUANINE, Metabolic Activation: RAT HEPATOCYTES, Method: STANDARD PLATE): inactive; negative | mutagenic call (Test System: CHINESE HAMSTER V-79, Strain/Indicator: V-79/OUABAIN, Metabolic Activation: NONE, Method: STANDARD PLATE): inactive; negative | mutagenic call (Test System: CHINESE HAMSTER V-79, Strain/Indicator: V-79/OUABAIN, Metabolic Activation: RAT HEPATOCYTES, Method: STANDARD PLATE): inactive; negative | mutagenic call (Test System: E. COLI, Strain/Indicator: WP2, Metabolic Activation: NONE, Method: STANDARD PLATE): inactive; negative | mutagenic call (Test System: E. COLI, Strain/Indicator: WP2, Metabolic Activation: RAT, LIVER, S-9, AROCLOR 1254, Method: STANDARD PLATE): inactive; negative

C/C=C/C=C/CCCCCCCOC(C)=O
mutagenic call [1]: inactive; negative | mutagenic call (Test System: AMES SALMONELLA TYPHIMURIUM, Strain/Indicator: TA98, Metabolic Activation: RAT, LIVER, S-9, Method: STANDARD PLATE): inactive; negative | mutagenic call [3]: inactive; negative | mutagenic call (Test System: AMES SALMONELLA TYPHIMURIUM, Strain/Indicator: TA100, Metabolic Activation: RAT, LIVER, S-9, Method: STANDARD PLATE): inactive; negative | mutagenic call (Test System: AMES SALMONELLA TYPHIMURIUM, Strain/Indicator: TA102, Metabolic Activation: NONE, Method: STANDARD PLATE): inactive; negative | mutagenic call (Test System: AMES SALMONELLA TYPHIMURIUM, Strain/Indicator: TA102, Metabolic Activation: RAT, LIVER, S-9, Method: STANDARD PLATE): inactive; negative
